Reference: ChEMBL document CHEMBL1201862, “PubChem BioAssay data set” (2004)
Activity calls are given as the source filed them.

Legend:
[1] = biological target: Photoreceptor-specific nuclear receptor (Homo sapiens, UniProt Q9Y5X4); type: functional, cell-based;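 further: CHO-S cells with Gal4-NCOR and VP16-NR2E3 two-hybrid luciferase reporter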
Cysteine protease ATG4B = biological target: T1, Cysteine protease ATG4B (Homo sapiens, UniProt Q9Y4P1); type: functional;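 further: Fluorescence-based dose-response confirmation assay measuring inhibition of ATG4B activity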
T1 sequence (Q9Y4P1 whole entry): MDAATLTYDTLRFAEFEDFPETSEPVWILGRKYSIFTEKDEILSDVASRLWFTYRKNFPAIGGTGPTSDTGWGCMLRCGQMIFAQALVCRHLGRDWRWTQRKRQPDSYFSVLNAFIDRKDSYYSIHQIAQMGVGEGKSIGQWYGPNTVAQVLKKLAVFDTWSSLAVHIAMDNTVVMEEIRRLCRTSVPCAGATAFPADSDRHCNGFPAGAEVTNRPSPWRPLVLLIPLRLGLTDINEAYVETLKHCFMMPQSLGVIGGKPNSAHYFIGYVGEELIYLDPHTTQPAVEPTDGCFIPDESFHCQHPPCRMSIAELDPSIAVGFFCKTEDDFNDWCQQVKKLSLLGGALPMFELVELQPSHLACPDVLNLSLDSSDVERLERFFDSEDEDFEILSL

Phospholipase A2 = Phospholipase A2 (Homo sapiens, UniProt P04054); type: functional;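 further: confirmatory dose-response counterscreen on phospholipase A2, testing hits that came from an ultra-high-throughput screen for ATG4B inhibitors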
[2] = nonselective inhibitors of cellular cAMP signaling, dose response, counter-screen for MC4R biased antagonist project, cell-based, TR-FRET cAMP detection (AID 602305); type: functional;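 further: U2OS cells stimulated with forskolin near its EC80 as the cAMP inducer; potency is for inhibition of forskolin-stimulated cAMP signaling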
Melanocortin receptor 4 = Melanocortin receptor 4 (Homo sapiens, UniProt P32245); experiment: MC4R antagonist potency on cAMP, dose response, cell-based, TR-FRET, biased antagonists (AID 602298); type: functional;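 further: antagonist potency against agonist-stimulated cAMP production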
[3] = THP-1 cell cytotoxicity, dose response, cytotoxicity control for non-replicating M. tuberculosis project (AID 489025); type: functional
cells [4] = type: functional, cell-based
Vero = experiment: cells; type: functional; details: Chlorocebus sabaeus
cells [5] = type: functional, cell-based; remark: listed apart in the source
[6] = biological target: G-protein coupled receptor 55 (Homo sapiens, UniProt Q9Y2T6); experiment: GPR55 antagonists blocking LPI-driven arrestin recruitment, primary screen, imaging, U2OS, beta-arrestin-GFP, LPI agonist (AID 2013); type: functional;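 further: antagonist potency measured as reduced agonist-driven arrestin aggregation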
[7] = cytotoxicity toward NIH3T3 fibroblasts, dose response, counter-screen, cell-based, ATP luminescence, mouse fibroblasts (AID 2010); type: functional;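 further: cells exposed to compound for about 90 hours before reading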
[8] = inhibitors of intracellular T. cruzi replication, confirmation, NIH3T3 host cells, beta-gal luminescence (AID 2044); type: functional, cell-based;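 further: intracellular parasites grown in NIH/3T3 mouse fibroblasts as host cells; luminescent beta-galactosidase reporter signal from transgenic T. cruzi replicating inside host cells; inhibitors lower the luminescence signal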
[9] = Luminescence Cell-Based Dose Retest to Confirm Inhibitors of Cancer Stem Cells. [Related pubchem assays (depositor defined):AID2717, AID2721]; type: functional; details: Homo sapiens
[10] = biological target: Beta-2 adrenergic receptor (Homo sapiens, UniProt P07550); experiment: beta2AR agonists driving receptor internalization, dose response, cell-based, FAP fluorogen, flow cytometry, cherry pick 1 (AID 588763); type: functional
[11] = Luminescence Cell-Based Dose Response HTS to Identify Activators of Luciferase Translation or Activity in H4 […] Cells. [Related pubchem assays: 1829 (Project Summary), 1814 (Primary HTS)]; type: functional
H4 = experiment: Luminescence Cell-Based Dose Response HTS to Identify Activators of 5'UTR Stem-Loop Driven Prion Protein mRNA Translation in H4 Neuroglioblastoma Cells. [Related pubchem assays: 1829 (Project Summary), 1814 (Primary HTS)]; type: functional; details: Homo sapiens
[12] = Luminescence Cell-Based Dose Confirmation HTS to Identify Activators of 5'UTR Stem-Loop Driven Alpha-Synuclein mRNA Translation in H4 Neuroglioblastoma Cells. [Related pubchem assays: 1829 (Project Summary), 1814 (Primary HTS)]; type: functional
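Wherever AC50 is given: cells exposed to compound for roughly 70 hours or longer before luminescence read.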

Sequence of Melanocortin receptor 4 (P32245 whole entry): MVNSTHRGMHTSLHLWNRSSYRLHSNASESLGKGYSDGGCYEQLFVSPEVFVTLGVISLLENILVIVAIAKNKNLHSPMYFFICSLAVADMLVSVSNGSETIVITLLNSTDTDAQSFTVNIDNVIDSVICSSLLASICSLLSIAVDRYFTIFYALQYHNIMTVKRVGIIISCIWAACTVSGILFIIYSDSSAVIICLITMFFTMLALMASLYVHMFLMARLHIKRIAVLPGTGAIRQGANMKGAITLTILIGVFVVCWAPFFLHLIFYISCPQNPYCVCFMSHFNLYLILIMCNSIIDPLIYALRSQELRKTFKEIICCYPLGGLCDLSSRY
Sequence of Photoreceptor-specific nuclear receptor (Q9Y5X4 whole entry, the tested form may be a part): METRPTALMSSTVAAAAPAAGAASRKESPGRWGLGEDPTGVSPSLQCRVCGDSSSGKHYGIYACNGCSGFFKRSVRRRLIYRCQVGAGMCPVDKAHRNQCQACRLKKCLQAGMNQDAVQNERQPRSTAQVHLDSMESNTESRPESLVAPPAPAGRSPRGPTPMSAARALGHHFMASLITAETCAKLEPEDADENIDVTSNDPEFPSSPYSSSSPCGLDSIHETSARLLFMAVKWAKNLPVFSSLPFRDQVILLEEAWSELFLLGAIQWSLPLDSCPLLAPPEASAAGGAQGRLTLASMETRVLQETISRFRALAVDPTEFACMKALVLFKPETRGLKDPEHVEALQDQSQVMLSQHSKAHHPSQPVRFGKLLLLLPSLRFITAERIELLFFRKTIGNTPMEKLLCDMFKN
Sequence of Phospholipase A2 (P04054 whole entry): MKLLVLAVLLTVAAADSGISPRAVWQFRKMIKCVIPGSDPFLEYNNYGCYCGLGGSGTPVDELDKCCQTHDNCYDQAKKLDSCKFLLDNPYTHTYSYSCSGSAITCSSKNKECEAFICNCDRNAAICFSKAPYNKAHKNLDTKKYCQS
Sequence of G-protein coupled receptor 55 (Q9Y2T6 whole entry): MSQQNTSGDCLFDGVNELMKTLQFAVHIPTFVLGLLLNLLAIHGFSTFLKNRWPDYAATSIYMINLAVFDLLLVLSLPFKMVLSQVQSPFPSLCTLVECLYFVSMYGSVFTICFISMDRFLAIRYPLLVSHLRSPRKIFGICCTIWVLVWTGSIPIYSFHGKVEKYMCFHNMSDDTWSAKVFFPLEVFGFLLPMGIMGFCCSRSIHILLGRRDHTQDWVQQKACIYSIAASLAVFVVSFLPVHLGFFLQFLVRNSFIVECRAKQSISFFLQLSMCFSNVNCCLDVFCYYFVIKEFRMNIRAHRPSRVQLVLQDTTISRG
Sequence of Beta-2 adrenergic receptor (P07550 whole entry): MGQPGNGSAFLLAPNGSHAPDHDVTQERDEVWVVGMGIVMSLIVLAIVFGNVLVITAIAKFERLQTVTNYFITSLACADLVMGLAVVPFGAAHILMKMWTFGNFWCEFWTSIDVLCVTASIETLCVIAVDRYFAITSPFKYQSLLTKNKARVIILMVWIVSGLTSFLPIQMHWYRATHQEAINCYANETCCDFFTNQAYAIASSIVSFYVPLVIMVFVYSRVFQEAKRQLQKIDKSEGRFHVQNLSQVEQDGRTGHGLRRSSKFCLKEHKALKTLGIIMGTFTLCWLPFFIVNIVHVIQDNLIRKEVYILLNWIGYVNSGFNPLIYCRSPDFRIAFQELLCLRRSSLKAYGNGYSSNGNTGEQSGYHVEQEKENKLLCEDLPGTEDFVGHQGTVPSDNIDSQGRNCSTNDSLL

## CC(C)(C)c1ccc(CSc2nc(N)cc(O)n2)cc1
[1]
  IC50: 5.21 µM (active)

## Nc1c(N2CCN(c3ccccc3)CC2)c2ccccc2oc1=O
Cysteine protease ATG4B
  IC50: 20.4 µM (inactive)
Phospholipase A2
  IC50: 12.9 µM (active)

## COc1ccc(CC(=O)Oc2ccc(F)c(F)c2)cc1S(=O)(=O)N1CCOCC1
[2]
  IC50: > 64.6 µM (inactive)
Melanocortin receptor 4
  IC50: > 64.6 µM (inactive)

## c1ccc(Cc2nnc(-c3ccccc3)o2)cc1
[3]
  CC50: > 40 µM (active)
Cells [4]
  EC50: > 350 µM (not active)
Vero
  CC50: 16.3 µM (active)
Cells [5]
  EC50: 56.3 µM (active)
[6]
  IC50: 3.3 µM (active)

## CN(C)CCNC(=O)COc1ccc(C23CC4CC(CC(C4)C2)C3)cc1
Vero
  CC50: 18.5 µM (active)
[7]
  EC50: > 60 µM (inconclusive)
[8]
  EC50: 1.83 µM (active)
[9]
  AC50: 4.95 µM (active)

## CCCCC(=O)Nc1ccc(C(=O)N(CC)c2ccccc2C)cc1
[10]
  EC50: 17.5 µM (inactive)

## O=C(/C=C/c1cccc(O)c1)c1ccc(N2CCOCC2)cc1
Vero
  CC50: 12.7 µM (active)
[11]
  EC50: 12.3 µM (active)
H4
  EC50: > 120 µM (not active)
[12]
  EC50: > 120 µM (not active)
